Data from patent US7964531B2, “3-phenoxy-4-pyridazinol derivatives and herbicidal composition containing the same” (Mitsui Chemicals Agro, Inc., priority 2001, dated 2011).

How the values were obtained:
Type in all cases: in vivo
Settings in all cases: wettable powder applied 3 days after transplanting, judged after 25 days
Cyperus serotinus = assay: Test Example 1: herbicidal effects, paddy-field pot test
Procedure: (§1) A paddy soil was filled in 1/10,000 are pot, and seeds of barnyardgrass (Echinochloa oryzicola Vasing.), Scirpus joncoides and annual broad-leaved weeds (Lindernia spp., Rotala indica) which are awaken from dormancy were mixed at the surface layer of 1 cm. Also, tuber of Cyperus serotinus which is germinated was planted, and further seedlings of paddy-field rice at 2.2-leaf stage were transplanted, and they were grown under the flooded condition in a greenhouse. After 3 days from transplanting, a predetermined chemical dosage of the wettable powder prepared in accordance with Preparation example 1 was diluted in water, and the solution was applied to the pot and herbicidal effects and crop injury against transplanted paddy-field rice were judged after 25 days from the treatment. Also, 3-(2-allylphenoxy)-6-chloro-4-methoxypyridazine described in Chemical Pharmaceutical Bulletin, 1972, vol. 20, No. 10, pp. 2191-2203 was used as Comparative compound. Incidentally, herbicidal effects and crop injury against transplanted paddy-field rice were judged by the following judgment standard, and “-” in the table means no test was carried out.
(§2) Judgment Standard • 0: Growth inhibition rate; 0 to 10% • 1: Growth inhibition rate; 11 to 30% • 2: Growth inhibition rate; 31 to 50% • 3: Growth inhibition rate; 51 to 70% • 4: Growth inhibition rate; 71 to 90% • 5: Growth inhibition rate; 91 to 100%.

Scirpus joncoides = assay: as above
Procedure: as §1, §2

[1] = tested on: annual broad-leaved weeds (Lindernia spp., Rotala indica); assay: as above
Procedure: as §1, §2

[2] = tested on: barnyardgrass (Echinochloa oryzicola Vasing.); assay: as above
Procedure: as §1, §2

[3] = tested on: transplanted paddy-field rice; assay: Test Example 1: crop injury against transplanted paddy-field rice
Procedure: as §1, §2

SMILES	Herbicidal effects Cyperus serotinus (Cyperus serotinus; chemical dosage 10 g/a)	Herbicidal effects Cyperus serotinus (Cyperus serotinus; chemical dosage 20 g/a)	Herbicidal effects Scirpus joncoides (Scirpus joncoides; chemical dosage 10 g/a)	Herbicidal effects Scirpus joncoides (Scirpus joncoides; chemical dosage 20 g/a)	Herbicidal effects Broad leaf ([1]; chemical dosage 10 g/a)	Herbicidal effects Broad leaf ([1]; chemical dosage 20 g/a)	Herbicidal effects Barnyard grass ([2]; chemical dosage 10 g/a)	Herbicidal effects Barnyard grass ([2]; chemical dosage 20 g/a)	Crop injury against transplanted rice ([3]; chemical dosage 10 g/a)	Crop injury against transplanted rice ([3]; chemical dosage 20 g/a)	Herbicidal effects Cyperus serotinus (Cyperus serotinus; chemical dosage 12.5 g/a)	Herbicidal effects Cyperus serotinus (Cyperus serotinus; chemical dosage 25 g/a)	Herbicidal effects Scirpus joncoides (Scirpus joncoides; chemical dosage 12.5 g/a)	Herbicidal effects Scirpus joncoides (Scirpus joncoides; chemical dosage 25 g/a)	Herbicidal effects Broad leaf ([1]; chemical dosage 12.5 g/a)	Herbicidal effects Broad leaf ([1]; chemical dosage 25 g/a)	Herbicidal effects Barnyard grass ([2]; chemical dosage 12.5 g/a)	Herbicidal effects Barnyard grass ([2]; chemical dosage 25 g/a)	Crop injury against transplanted rice ([3]; chemical dosage 12.5 g/a)	Crop injury against transplanted rice ([3]; chemical dosage 25 g/a)
Cc1ccc(C2CC2)c(Oc2nnc(Cl)cc2O)c1 [Example 218]	5 (Growth inhibition rate; 91 to 100%)	5 (Growth inhibition rate; 91 to 100%)	5 (Growth inhibition rate; 91 to 100%)	5 (Growth inhibition rate; 91 to 100%)	5 (Growth inhibition rate; 91 to 100%)	5 (Growth inhibition rate; 91 to 100%)	0 (Growth inhibition rate; 0 to 10%)	1 (Growth inhibition rate; 11 to 30%)	0 (Growth inhibition rate; 0 to 10%)	0 (Growth inhibition rate; 0 to 10%)										
Oc1cc(Cl)nnc1Oc1ccccc1Cl [Example 50]											5 (Growth inhibition rate; 91 to 100%)	5 (Growth inhibition rate; 91 to 100%)	3 (Growth inhibition rate; 51 to 70%)	4 (Growth inhibition rate; 71 to 90%)	5 (Growth inhibition rate; 91 to 100%)	5 (Growth inhibition rate; 91 to 100%)	2 (Growth inhibition rate; 31 to 50%)	3 (Growth inhibition rate; 51 to 70%)	0 (Growth inhibition rate; 0 to 10%)	0 (Growth inhibition rate; 0 to 10%)
Cc1ccccc1Oc1nnc(Cl)cc1OC(=O)c1ccccc1 [Example 328]	5 (Growth inhibition rate; 91 to 100%)	5 (Growth inhibition rate; 91 to 100%)	3 (Growth inhibition rate; 51 to 70%)	5 (Growth inhibition rate; 91 to 100%)	3 (Growth inhibition rate; 51 to 70%)	5 (Growth inhibition rate; 91 to 100%)	3 (Growth inhibition rate; 51 to 70%)	4 (Growth inhibition rate; 71 to 90%)	0 (Growth inhibition rate; 0 to 10%)	0 (Growth inhibition rate; 0 to 10%)										
Cc1ccc(S(=O)(=O)Oc2cc(Cl)nnc2Oc2ccccc2C2CC2)cc1 [Example 27]	5 (Growth inhibition rate; 91 to 100%)	5 (Growth inhibition rate; 91 to 100%)	4 (Growth inhibition rate; 71 to 90%)	5 (Growth inhibition rate; 91 to 100%)	5 (Growth inhibition rate; 91 to 100%)	5 (Growth inhibition rate; 91 to 100%)	2 (Growth inhibition rate; 31 to 50%)	4 (Growth inhibition rate; 71 to 90%)	0 (Growth inhibition rate; 0 to 10%)	0 (Growth inhibition rate; 0 to 10%)										
COc1cccc(Br)c1Oc1nnc(Cl)cc1O [Example 255]	5 (Growth inhibition rate; 91 to 100%)	5 (Growth inhibition rate; 91 to 100%)	4 (Growth inhibition rate; 71 to 90%)	4 (Growth inhibition rate; 71 to 90%)	5 (Growth inhibition rate; 91 to 100%)	5 (Growth inhibition rate; 91 to 100%)	5 (Growth inhibition rate; 91 to 100%)	5 (Growth inhibition rate; 91 to 100%)	0 (Growth inhibition rate; 0 to 10%)	2 (Growth inhibition rate; 31 to 50%)										
Cc1ccc(Br)c(Oc2nnc(Cl)cc2O)c1C [Example 294]	5 (Growth inhibition rate; 91 to 100%)	5 (Growth inhibition rate; 91 to 100%)	5 (Growth inhibition rate; 91 to 100%)	5 (Growth inhibition rate; 91 to 100%)	5 (Growth inhibition rate; 91 to 100%)	5 (Growth inhibition rate; 91 to 100%)	1 (Growth inhibition rate; 11 to 30%)	2 (Growth inhibition rate; 31 to 50%)	0 (Growth inhibition rate; 0 to 10%)	0 (Growth inhibition rate; 0 to 10%)										
COc1ccccc1Oc1nnc(Cl)cc1O [Example 121]											5 (Growth inhibition rate; 91 to 100%)	5 (Growth inhibition rate; 91 to 100%)	3 (Growth inhibition rate; 51 to 70%)	4 (Growth inhibition rate; 71 to 90%)	5 (Growth inhibition rate; 91 to 100%)	5 (Growth inhibition rate; 91 to 100%)	2 (Growth inhibition rate; 31 to 50%)	3 (Growth inhibition rate; 51 to 70%)	0 (Growth inhibition rate; 0 to 10%)	0 (Growth inhibition rate; 0 to 10%)
Oc1cc(Cl)nnc1Oc1cc(Cl)ccc1C1CC1 [Example 217]	5 (Growth inhibition rate; 91 to 100%)	5 (Growth inhibition rate; 91 to 100%)	5 (Growth inhibition rate; 91 to 100%)	5 (Growth inhibition rate; 91 to 100%)	5 (Growth inhibition rate; 91 to 100%)	5 (Growth inhibition rate; 91 to 100%)	2 (Growth inhibition rate; 31 to 50%)	4 (Growth inhibition rate; 71 to 90%)	0 (Growth inhibition rate; 0 to 10%)	0 (Growth inhibition rate; 0 to 10%)										
COc1cccc(C)c1Oc1nnc(Cl)cc1O [Example 267]	5 (Growth inhibition rate; 91 to 100%)	5 (Growth inhibition rate; 91 to 100%)	4 (Growth inhibition rate; 71 to 90%)	5 (Growth inhibition rate; 91 to 100%)	5 (Growth inhibition rate; 91 to 100%)	5 (Growth inhibition rate; 91 to 100%)	1 (Growth inhibition rate; 11 to 30%)	2 (Growth inhibition rate; 31 to 50%)	0 (Growth inhibition rate; 0 to 10%)	0 (Growth inhibition rate; 0 to 10%)										
Cc1cccc(C(C)C)c1Oc1nnc(Cl)cc1O [Example 261]	5 (Growth inhibition rate; 91 to 100%)	5 (Growth inhibition rate; 91 to 100%)	4 (Growth inhibition rate; 71 to 90%)	5 (Growth inhibition rate; 91 to 100%)	5 (Growth inhibition rate; 91 to 100%)	5 (Growth inhibition rate; 91 to 100%)	2 (Growth inhibition rate; 31 to 50%)	2 (Growth inhibition rate; 31 to 50%)	0 (Growth inhibition rate; 0 to 10%)	0 (Growth inhibition rate; 0 to 10%)										
CCCc1cccc(F)c1Oc1nnc(Cl)cc1O [Example 234]											5 (Growth inhibition rate; 91 to 100%)	5 (Growth inhibition rate; 91 to 100%)	3 (Growth inhibition rate; 51 to 70%)	4 (Growth inhibition rate; 71 to 90%)	5 (Growth inhibition rate; 91 to 100%)	5 (Growth inhibition rate; 91 to 100%)	0 (Growth inhibition rate; 0 to 10%)	0 (Growth inhibition rate; 0 to 10%)	0 (Growth inhibition rate; 0 to 10%)	0 (Growth inhibition rate; 0 to 10%)
Cc1ccc2c(c1Oc1nnc(Cl)cc1O)CCC2 [Example 305]	5 (Growth inhibition rate; 91 to 100%)		5 (Growth inhibition rate; 91 to 100%)		5 (Growth inhibition rate; 91 to 100%)		1 (Growth inhibition rate; 11 to 30%)		0 (Growth inhibition rate; 0 to 10%)											
